Laboratory results published in US20220218679A1, “NOVEL COMPOUNDS AND PHARMACEUTICAL COMPOSITIONS THEREOF FOR THE TREATMENT OF INFLAMMATORY DISORDERS” (Galapagos NV, priority 2019, published 2022).
Like-named read-outs stand apart in the source and are kept apart here.

Assays:
THP-1-Lucia NFκB cells = assay: THP1-Lucia NFκB reporter assay (LPS, IL-1β, TNFα triggering); assay type: cell-based; conditions: for EC50: 24 h incubation
Source text: This assay was used to evaluate the IRAK4 selectivity and potency of the compounds of the invention upon IRAK4 dependent (LPS and IL-1β) and independent triggering (TNFα), in a THP1-Lucia NFκB reporter assay.
THP-1-Lucia NFκB cells (Invivogen—5, rue Jean Rodier 31400 Toulouse France—cat #thp1-nfkb) were cultivated as recommended by the supplier using split cycles each cycle comprising a succession of thawing/expansion/seeding. The data reported were generated using cells having between 3 to 9 cycles. On the day of the experiment THP-1-Lucia NFκB cells were counted and seeded at a density of 1,000,000 cells/mL in culture medium (RPMI 1640 (Gibco, Cat #52400-025)+10% FBS (Sigma, Cat #F7524-500ML)+1% P/S (Gibco, Cat #15140-122)) by pipetting 54 μL/well in a 384 well plate. Thereafter, 6 μL of a 10× trigger solution was added to all wells, at final concentrations of 2.5, 10 and 3 ng/mL for respectively LPS, TNFα and IL-1β, except for ‘no trigger wells’ where 6 μL culture medium only was added.
After trigger addition, compounds were added with a digital compound dispenser, in a 8-points concentration range, using 3-fold dilution steps and normalizing the final DMSO concentration to 0.2% DMSO in all wells.
After 24 h incubation at 37° C., 5% CO2, 40 μL of supernatant was collected per well and transferred to a new 384 well plate that was then stored at −20° C. until further use.
For the readout, supernatant samples were thawed on ice and 5 μL sample was transferred from each well to a new 384-well plate. 20 μL of Quanti-Luc solution (Quanti-Luc powder (Invivogen, Cat #rep-qlc1) dissolved in 25 mL sterile water as indicated by the manufacturer) was added to each well after which luminescence was immediately measured on an Envision instrument.
To measure the inhibition of LPS/TNFα/IL-1β-induced NFκB-reporter activity, percentage inhibition (PIN) values were calculated for all concentrations tested, compared to controls. […]

[1] = tested on: MC903 induced atopic dermatitis in mice; assay: Murine prophylactic model of atopic dermatitis induced by topical application of MC903; assay type: in vivo, BALB/cN mice or CD1/Swiss mice; conditions: 10 mg/kg b.i.d., versus disease vehicle group
Source text: 5.5. Murine Prophylactic Model of Atopic Dermatitis Induced by Topical Application of MC903
Methylcellulose 0.5% was obtained from VWR (cat no. AX021233). MC903 (calcipotriol) was obtained from Tocris Bioscience (cat no. 2700/50). ProSense® 680 was obtained from PerkinElmer (cat no. NEV10003). RNAlater® was obtained from Ambion (cat no. AM7021). Imalgene® 1000 (Merial) and Rompun® 2% (Bayer) were obtained from Centravet (cat no. IMA004-6827812 and ROM001-6835444).
BALB/cN mice (female, 18-20 g body weight) or CD1/Swiss mice (female, 24-26 g body weight) were obtained from Janvier Labs (France). Mice were kept on a 12 h light/dark cycle (07:00-19:00). Temperature was maintained at 22±2° C., food and water were provided ad libitum. […]
The thickness of both ears was measured (after anaesthesia induced by isoflurane inhalation) at initiation of the study, every other day and at sacrifice using a thickness gage (Mitutoyo, Absolute Digimatic, 547-321).
Body weight was assessed at initiation of the study, every other day and at sacrifice.
On D4, mice from all groups receive ProSense® 680 probe (0.8 nmol/10 g, IP). […] Granulocyte infiltration was measured using in vivo molecular imaging (Bruker In-Vivo Xtreme imaging system, excitation wavelength: 630 nm, emission wavelength: 700 nm, acquisition time: 5 seconds). […]
For each readout, mean and sem were calculated. […]

Compound: COc1cn2nc(CCC(C)(C)O)cc2cc1NC(=O)c1cccn(C2CC2)c1=O [Compound 1, 1-cyclopropyl-N-[2-(3-hydroxy-3-methylbutyl)-6-methoxypyrazolo[1,5-a]pyridin-5-yl]-2-oxopyridine-3-carboxamide]
- EC50 (THP-1-Lucia NFκB cells; IL-1β trigger 3 ng/mL, read-out: IL-1β driven NFκB-reporter activity, average pEC50 (converted)): 100 nM
- EC50 (THP-1-Lucia NFκB cells; LPS trigger 2.5 ng/mL, read-out: LPS driven NFκB-reporter activity, average pEC50 (converted)): 100 nM
- TNFα mediated NFκB-reporter activity (THP-1-Lucia NFκB cells; TNFα trigger 10 ng/mL, 24 h incubation (IRAK4 independent)): no activity was observed
- effect on ear thickening at D8 [1]: statistically significant effect
- effect on granulocyte infiltrate [1]: statistically significant effect
